Legend:
Type in all cases: in vivo
[1] = tested on: ducksalad (Heteranthera limosa); test: Test B flooded paddy test plant response
Summary of the method: (§1)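 Rice, umbrella sedge, ducksalad and barnyardgrass at 2-leaf stage; pots flooded to 3 cm, compounds applied into paddy water, depth held throughout. Greenhouse 13 to 15 days, then visual rating vs untreated controls on 0–100 scale (0 no effect, 100 complete control); dash means no test result.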

rice (Oryza sativa) = test: Test B flooded paddy test plant response
Summary of the method: as §1

[2] = tested on: umbrella sedge (Cyperus difformis); test: Test B flooded paddy test plant response
Summary of the method: as §1

[3] = tested on: barnyardgrass (Echinochloa crus-galli); test: Test B flooded paddy test plant response
Summary of the method: as §1

[4] = tested on: giant foxtail (Setaria faberii); test: Test B pre-/postemergence plant response
Excerpt: (§2) Seeds of plant species selected from blackgrass (Alopecurus myosuroides), downy bromegrass (Bromus tectorum), green foxtail (Setaria viridis), Italian ryegrass (Lolium multiflorum), wheat (Triticum aestivum), wild oat (Avena fatua), catchweed bedstraw (Galium aparine), bermudagrass (Cynodon dactylon), surinam grass (Brachiaria decumbens), cocklebur (Xanthium strumarium), corn (Zea mays), large crabgrass (Digitaria sanguinalis), woolly cupgrass (Eriochloa villosa), giant foxtail (Setaria faberii), goosegrass (Eleusine indica), johnsongrass (Sorghum halepense), kochia (Kochia scoparia), lambsquarters (Chenopodium album), morningglory (Ipomoea coccinea), eastern black (E.B.) nightshade (Solanum ptycanthum), yellow nutsedge (Cyperus esculentus), pigweed (Amaranthus retroflexus), common ragweed (Ambrosia elation), Russian thistle (Salsola iberica), soybean (Glycine max), common (oilseed) sunflower (Helianthus annuus), and velvetleaf (Abutilon theophrasti) were planted and treated preemergence with test chemicals formulated in a non-phytotoxic solvent mixture which included a surfactant.
(§3) At the same time, plants selected from these crop and weed species and also winter barley (Hordeum vulgare), canarygrass (Phalaris minor), chickweed (Stellaria media) and windgrass (Apera spica-venti) were treated with postemergence applications of some of the test chemicals formulated in the same manner. Plants ranged in height from 2 to 18 cm (1- to 4-leaf stage) for postemergence treatments.
(§4) Plant species in the flooded paddy test consisted of rice (Oryza sativa), umbrella sedge (Cyperus difformis), ducksalad (Heteranthera limosa) and barnyardgrass (Echinochloa crus-galli) grown to the 2-leaf stage for testing. At time of treatment, test pots were flooded to 3 cm above the soil surface, treated by application of test compounds directly to the paddy water, and then maintained at that water depth for the duration of the test. Treated plants and controls were maintained in a greenhouse for 13 to 15 days, after which time all species were compared to controls and visually evaluated. Plant response ratings, summarized in Table B, are based on a scale of 0 to 100 where 0 is no effect and 100 is complete control. A dash (-) response means no test result.

[5] = tested on: Italian ryegrass (Lolium multiflorum); test: Test B pre-/postemergence plant response
Excerpt: as §2, §3, §4

[6] = tested on: velvetleaf (Abutilon theophrasti); test: Test B pre-/postemergence plant response
Excerpt: as §2, §3, §4

[7] = tested on: woolly cupgrass (Eriochloa villosa); test: Test B pre-/postemergence plant response
Excerpt: as §2, §3, §4

[8] = tested on: bermudagrass (Cynodon dactylon); test: Test B pre-/postemergence plant response
Excerpt: as §2, §3, §4

corn (Zea mays) = test: Test B pre-/postemergence plant response
Excerpt: as §2, §3, §4

[9] = tested on: cocklebur (Xanthium strumarium); test: Test B pre-/postemergence plant response
Excerpt: as §2, §3, §4

[10] = tested on: downy bromegrass (Bromus tectorum); test: Test B pre-/postemergence plant response
Excerpt: as §2, §3, §4

[11] = tested on: yellow nutsedge (Cyperus esculentus); test: Test B pre-/postemergence plant response
Excerpt: as §2, §3, §4

[12] = Flood (flooded paddy test), 62 g ai/ha, scale 0 to 100, 0 no effect, 100 complete control
[13] = Flood (flooded paddy test), 125 g ai/ha, scale 0 to 100, 0 no effect, 100 complete control
[14] = Flood (flooded paddy test), 250 g ai/ha, scale 0 to 100, 0 no effect, 100 complete control
[15] = Flood, 31 g ai/ha, scale 0 to 100
[16] = 8 g ai/ha, postemergence, 0-100 scale
[17] = Postemergence, 16 g ai/ha, scale 0 to 100
[18] = Postemergence, 31 g ai/ha, scale 0 to 100
[19] = Postemergence, 62 g ai/ha, scale 0 to 100, 0 no effect, 100 complete control
[20] = 16 g ai/ha, postemergence, 0-100 scale
[21] = Flood, 62 g ai/ha, scale 0 to 100
[22] = Preemergence, 8 g ai/ha, scale 0 to 100 (0 no effect, 100 complete control)
[23] = Preemergence, 31 g ai/ha, scale 0 to 100 (0 no effect, 100 complete control)
[24] = Preemergence, 62 g ai/ha, 0 to 100 scale, 0 no effect, 100 complete control
[25] = Preemergence, 16 g ai/ha, scale 0 to 100

CCc1cc(-c2ccc(Br)cc2)nn1-c1c(O)cnn(CC(F)(F)F)c1=O [Compound 73]
Plant response rating, Ducksalad [1, 12]: 0
Plant response rating, Ducksalad [1, 13]: 0
Plant response rating, Ducksalad [1, 14]: 0
Plant response rating, Ducksalad [1, 15]: 0
Plant response rating, Rice (rice (Oryza sativa); [12]): 0
Plant response rating, Rice (rice (Oryza sativa); [13]): 0
Plant response rating, Rice (rice (Oryza sativa); [14]): 0
Plant response rating, Rice (rice (Oryza sativa); [15]): 0
Plant response rating, Sedge, Umbrella [2, 12]: 0
Plant response rating, Sedge, Umbrella [2, 13]: 0
Plant response rating, Sedge, Umbrella [2, 14]: 0
Plant response rating, Sedge, Umbrella [2, 15]: 0
Plant response rating, Barnyardgrass [3, 12]: 0
Plant response rating, Barnyardgrass [3, 13]: 0
Plant response rating, Barnyardgrass [3, 14]: 0
Plant response rating, Barnyardgrass [3, 15]: 0
Foxtail, Giant plant response rating [4, 16]: 30
Plant response rating, Foxtail, Giant [4, 17]: 70
Plant response rating, Foxtail, Giant [4, 18]: 90
Plant response rating, Foxtail, Giant [4, 19]: 100
Ryegrass, Italian plant response rating [5, 16]: 45
Ryegrass, Italian plant response rating [5, 20]: 70
Plant response rating, Ryegrass, Italian [5, 18]: 100
Plant response rating, Ryegrass, Italian [5, 19]: 100
Velvetleaf plant response rating [6, 16]: 0
Velvetleaf plant response rating [6, 20]: 0
Plant response rating, Velvetleaf [6, 18]: 0
Plant response rating, Velvetleaf [6, 19]: 0
Cupgrass, Woolly plant response rating [7, 16]: 85
Plant response rating, Cupgrass, Woolly [7, 17]: 98
Plant response rating, Cupgrass, Woolly [7, 18]: 100
Plant response rating, Cupgrass, Woolly [7, 19]: 100
Bermudagrass plant response rating [8, 16]: 0
Plant response rating, Bermudagrass [8, 17]: 0
Plant response rating, Bermudagrass [8, 18]: 10
Plant response rating, Bermudagrass [8, 19]: 10
Corn plant response rating (corn (Zea mays); [16]): 95
Plant response rating, Corn (corn (Zea mays); [17]): 100
Plant response rating, Corn (corn (Zea mays); [18]): 100
Plant response rating, Corn (corn (Zea mays); [19]): 100
Cocklebur plant response rating [9, 16]: 0
Plant response rating, Cocklebur [9, 17]: 0
Plant response rating, Cocklebur [9, 18]: 0
Plant response rating, Cocklebur [9, 19]: 0
Bromegrass, Downy plant response rating [10, 16]: 0
Plant response rating, Bromegrass, Downy [10, 17]: 0
Plant response rating, Bromegrass, Downy [10, 18]: 30
Plant response rating, Bromegrass, Downy [10, 19]: 60
Nutsedge, Yellow plant response rating [11, 16]: 0
Nutsedge, Yellow plant response rating [11, 20]: 0
Plant response rating, Nutsedge, Yellow [11, 18]: 0
Plant response rating, Nutsedge, Yellow [11, 19]: 0

CCc1c(C)c(-c2ccc(Br)cc2)nn1-c1c(O)cnn(C)c1=O [Compound 83]
Plant response rating, Ducksalad [1, 13]: 0
Plant response rating, Ducksalad [1, 15]: 0
Plant response rating, Ducksalad [1, 21]: 0
Plant response rating, Rice (rice (Oryza sativa); [13]): 0
Plant response rating, Rice (rice (Oryza sativa); [14]): 0
Plant response rating, Rice (rice (Oryza sativa); [15]): 0
Plant response rating, Rice (rice (Oryza sativa); [21]): 0
Plant response rating, Sedge, Umbrella [2, 13]: 0
Plant response rating, Sedge, Umbrella [2, 14]: 0
Plant response rating, Sedge, Umbrella [2, 15]: 0
Plant response rating, Sedge, Umbrella [2, 21]: 0
Plant response rating, Barnyardgrass [3, 13]: 0
Plant response rating, Barnyardgrass [3, 14]: 0
Plant response rating, Barnyardgrass [3, 15]: 0
Plant response rating, Barnyardgrass [3, 21]: 0
Foxtail, Giant plant response rating [4, 16]: 80
Foxtail, Giant plant response rating [4, 20]: 90
Plant response rating, Foxtail, Giant [4, 18]: 100
Plant response rating, Foxtail, Giant [4, 19]: 100
Foxtail, Giant plant response rating [4, 22]: 80
Plant response rating, Foxtail, Giant [4, 23]: 100
Plant response rating, Foxtail, Giant [4, 24]: 100
Foxtail, Giant plant response rating [4, 25]: 100
Ryegrass, Italian plant response rating [5, 16]: 85
Ryegrass, Italian plant response rating [5, 20]: 98
Plant response rating, Ryegrass, Italian [5, 18]: 100
Plant response rating, Ryegrass, Italian [5, 19]: 100
Ryegrass, Italian plant response rating [5, 22]: 30
Plant response rating, Ryegrass, Italian [5, 23]: 100
Plant response rating, Ryegrass, Italian [5, 24]: 100
Ryegrass, Italian plant response rating [5, 25]: 85
Velvetleaf plant response rating [6, 16]: 0
Velvetleaf plant response rating [6, 20]: 0
Plant response rating, Velvetleaf [6, 18]: 0
Plant response rating, Velvetleaf [6, 19]: 20
Velvetleaf plant response rating [6, 22]: 0
Plant response rating, Velvetleaf [6, 23]: 0
Plant response rating, Velvetleaf [6, 24]: 0
Velvetleaf plant response rating [6, 25]: 0
Cupgrass, Woolly plant response rating [7, 16]: 65
Cupgrass, Woolly plant response rating [7, 20]: 95
Plant response rating, Cupgrass, Woolly [7, 18]: 98
Plant response rating, Cupgrass, Woolly [7, 19]: 100
Cupgrass, Woolly plant response rating [7, 22]: 65
Plant response rating, Cupgrass, Woolly [7, 23]: 100
Plant response rating, Cupgrass, Woolly [7, 24]: 100
Cupgrass, Woolly plant response rating [7, 25]: 90
Bermudagrass plant response rating [8, 16]: 40
Bermudagrass plant response rating [8, 20]: 65
Plant response rating, Bermudagrass [8, 18]: 85
Plant response rating, Bermudagrass [8, 19]: 90
Bermudagrass plant response rating [8, 22]: 55
Bermudagrass plant response rating ([8]; Preemergence, 16 g ai/ha, scale 0 to 100 (0 no effect, 100 complete control)): 65
Plant response rating, Bermudagrass [8, 23]: 100
Plant response rating, Bermudagrass [8, 24]: 100
Corn plant response rating (corn (Zea mays); [16]): 65
Corn plant response rating (corn (Zea mays); [20]): 95
Plant response rating, Corn (corn (Zea mays); [18]): 98
Plant response rating, Corn (corn (Zea mays); [19]): 100
Corn plant response rating (corn (Zea mays); [22]): 0
Plant response rating, Corn (corn (Zea mays); [23]): 95
Plant response rating, Corn (corn (Zea mays); [24]): 95
Corn plant response rating (corn (Zea mays); [25]): 45
Cocklebur plant response rating [9, 16]: 0
Cocklebur plant response rating [9, 20]: 0
Plant response rating, Cocklebur [9, 18]: 0
Plant response rating, Cocklebur [9, 19]: 0
Cocklebur plant response rating [9, 22]: 0
Plant response rating, Cocklebur [9, 23]: 0
Plant response rating, Cocklebur [9, 24]: 0
Cocklebur plant response rating [9, 25]: 0
Bromegrass, Downy plant response rating [10, 16]: 10
Bromegrass, Downy plant response rating [10, 20]: 55
Plant response rating, Bromegrass, Downy [10, 18]: 75
Plant response rating, Bromegrass, Downy [10, 19]: 85
Bromegrass, Downy plant response rating [10, 22]: 0
Plant response rating, Bromegrass, Downy [10, 23]: 20
Plant response rating, Bromegrass, Downy [10, 24]: 30
Bromegrass, Downy plant response rating [10, 25]: 0
Nutsedge, Yellow plant response rating [11, 16]: 0
Nutsedge, Yellow plant response rating [11, 20]: 0
Plant response rating, Nutsedge, Yellow [11, 18]: 0
Plant response rating, Nutsedge, Yellow [11, 19]: 0
Nutsedge, Yellow plant response rating [11, 22]: 0
Plant response rating, Nutsedge, Yellow [11, 23]: 0
Plant response rating, Nutsedge, Yellow [11, 24]: 0
Nutsedge, Yellow plant response rating [11, 25]: 0

Reference: patent US20100267561A1, “HERBICIDAL PYRIDAZINONE DERIVATIVES” (priority 2007, published 2010)
